Assay results published in PubChem BioAssay (NCI).
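Values below derive from 48-hour exposures of cells grown in 96-well plates, with endpoints linearly interpolated between the two concentrations bracketing the appropriate inhibition level. TGI marks complete inhibition of growth.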

Legend:
Assay in all cases: inhibition of tumour cell growth, NCI panel, 48 h
HOP-92 NSCLC = test system: HOP-92 NSCLC
HT29 colon = test system: HT29 colon
K-562 leukemia = test system: K-562 leukemia
SN12C renal = test system: SN12C renal
DMS 114 small cell lung = test system: DMS 114 small cell lung
MOLT-4 leukemia = test system: MOLT-4 leukemia
UO-31 renal = test system: UO-31 renal
NCI-H226 lung = test system: NCI-H226 lung
SR leukemia = test system: SR leukemia
IGROV1 ovarian = test system: IGROV1 ovarian
CAKI-1 renal = test system: CAKI-1 renal
SK-MEL-28 melanoma = test system: SK-MEL-28 melanoma
COLO 205 colon = test system: COLO 205 colon
CCRF-CEM leukemia = test system: CCRF-CEM leukemia
OVCAR-5 ovarian = test system: OVCAR-5 ovarian
A549 NSCLC = test system: A549 NSCLC
SK-MEL-5 melanoma = test system: SK-MEL-5 melanoma
LXFL 529 NSCLC = test system: LXFL 529 NSCLC
M14 melanoma = test system: M14 melanoma
NCI-H522 lung = test system: NCI-H522 lung
OVCAR-4 ovarian = test system: OVCAR-4 ovarian
EKVX NSCLC = test system: EKVX NSCLC
M19-MEL melanoma = test system: M19-MEL melanoma
SK-OV-3 ovarian = test system: SK-OV-3 ovarian
SF-539 CNS = test system: SF-539 CNS
A498 renal = test system: A498 renal
786-0 renal = test system: 786-0 renal
TK-10 renal = test system: TK-10 renal
SNB-78 CNS = test system: SNB-78 CNS
U251 CNS = test system: U251 CNS
UACC-257 melanoma = test system: UACC-257 melanoma
HCT-15 colon = test system: HCT-15 colon
HL-60(TB) leukemia = test system: HL-60(TB) leukemia
SF-295 CNS = test system: SF-295 CNS
RPMI-8226 leukemia = test system: RPMI-8226 leukemia
DMS 273 small cell lung = test system: DMS 273 small cell lung
HCT-116 colon = test system: HCT-116 colon
ACHN renal = test system: ACHN renal
HCC-2998 colon = test system: HCC-2998 colon
NCI-H23 lung = test system: NCI-H23 lung
MALME-3M melanoma = test system: MALME-3M melanoma
SNB-19 CNS = test system: SNB-19 CNS
OVCAR-8 ovarian = test system: OVCAR-8 ovarian
DLD-1 colon = test system: DLD-1 colon
SNB-75 CNS = test system: SNB-75 CNS
UACC-62 melanoma = test system: UACC-62 melanoma
SK-MEL-2 melanoma = test system: SK-MEL-2 melanoma
HOP-18 NSCLC = test system: HOP-18 NSCLC
OVCAR-3 ovarian = test system: OVCAR-3 ovarian
HOP-62 NSCLC = test system: HOP-62 NSCLC
NCI-H460 lung = test system: NCI-H460 lung
SF-268 CNS = test system: SF-268 CNS
KM12 colon = test system: KM12 colon
SW-620 colon = test system: SW-620 colon
LOX IMVI melanoma = test system: LOX IMVI melanoma
RXF 393 renal = test system: RXF 393 renal
KM20L2 colon = test system: KM20L2 colon

In the case of c1ccc(C2=NOC3C4CCC(C4)C23)cc1 (configuration not stated), the TGI (HOP-92 NSCLC) is reported as > 100 µM, the TGI (HT29 colon) is reported as > 100 µM and the TGI (K-562 leukemia) is reported as > 100 µM. The TGI (SN12C renal) was > 100 µM, the TGI (DMS 114 small cell lung) was > 100 µM and the TGI (MOLT-4 leukemia) was > 100 µM. For the same molecule, the TGI (UO-31 renal) was > 100 µM, the TGI (NCI-H226 lung) was > 100 µM and the TGI (SR leukemia) was > 100 µM. The TGI (IGROV1 ovarian) was > 100 µM, the TGI (CAKI-1 renal) was > 100 µM and the TGI (SK-MEL-28 melanoma) was > 100 µM. For the same molecule, the TGI (COLO 205 colon) was > 100 µM, the TGI (CCRF-CEM leukemia) was > 100 µM and the TGI (OVCAR-5 ovarian) was > 100 µM. For the same molecule, the TGI (A549 NSCLC) was > 100 µM, the TGI (SK-MEL-5 melanoma) was > 100 µM and the TGI (LXFL 529 NSCLC) was > 100 µM. For the same molecule, the TGI (M14 melanoma) was > 100 µM, the TGI (NCI-H522 lung) was > 100 µM and the TGI (OVCAR-4 ovarian) was > 100 µM. For the same molecule, the TGI (EKVX NSCLC) was > 100 µM, the TGI (M19-MEL melanoma) was > 100 µM and the TGI (SK-OV-3 ovarian) was > 100 µM. The TGI (SF-539 CNS) was > 100 µM, the TGI (A498 renal) was > 100 µM and the TGI (786-0 renal) was > 100 µM. The TGI (TK-10 renal) was > 100 µM, the TGI (SNB-78 CNS) was > 100 µM and the TGI (U251 CNS) was > 100 µM. For the same molecule, the TGI (UACC-257 melanoma) was > 100 µM, the TGI (HCT-15 colon) was > 100 µM and the TGI (HL-60(TB) leukemia) was > 100 µM. The TGI (SF-295 CNS) was > 100 µM, the TGI (RPMI-8226 leukemia) was > 100 µM and the TGI (DMS 273 small cell lung) was > 100 µM. The TGI (HCT-116 colon) was > 100 µM, the TGI (ACHN renal) was > 100 µM and the TGI (HCC-2998 colon) was > 100 µM. The TGI (NCI-H23 lung) was > 100 µM, the TGI (MALME-3M melanoma) was > 100 µM and the TGI (SNB-19 CNS) was > 100 µM. For the same molecule, the TGI (OVCAR-8 ovarian) was > 100 µM, the TGI (DLD-1 colon) was > 100 µM and the TGI (SNB-75 CNS) was > 100 µM. For the same molecule, the TGI (UACC-62 melanoma) was > 100 µM, the TGI (SK-MEL-2 melanoma) was > 100 µM and the TGI (HOP-18 NSCLC) was > 100 µM. For the same molecule, the TGI (OVCAR-3 ovarian) was > 100 µM, the TGI (HOP-62 NSCLC) was > 100 µM and the TGI (NCI-H460 lung) was > 100 µM. For the same molecule, the TGI (SF-268 CNS) was > 100 µM, the TGI (KM12 colon) was > 100 µM and the TGI (SW-620 colon) was > 100 µM.

Nc1cccc2c1-c1c(cccc1[N+](=O)[O-])C2=O was tested, and the TGI (HOP-92 NSCLC) was > 100 µM, the TGI (HT29 colon) was > 100 µM and the TGI (K-562 leukemia) was > 100 µM. The TGI (SN12C renal) was > 100 µM, the TGI (DMS 114 small cell lung) was > 100 µM and the TGI (MOLT-4 leukemia) was > 100 µM. The TGI (UO-31 renal) was 0.469 µM, the TGI (NCI-H226 lung) was > 100 µM and the TGI (SR leukemia) was > 100 µM. For the same molecule, the TGI (IGROV1 ovarian) was > 100 µM, the TGI (CAKI-1 renal) was > 100 µM and the TGI (COLO 205 colon) was > 100 µM. The TGI (LOX IMVI melanoma) was > 100 µM, the TGI (RXF 393 renal) was > 100 µM and the TGI (CCRF-CEM leukemia) was > 100 µM. The TGI (OVCAR-5 ovarian) was > 100 µM, the TGI (A549 NSCLC) was > 100 µM and the TGI (SK-MEL-5 melanoma) was > 100 µM. For the same molecule, the TGI (M14 melanoma) was > 100 µM, the TGI (NCI-H522 lung) was > 100 µM and the TGI (OVCAR-4 ovarian) was > 100 µM. The TGI (EKVX NSCLC) was > 100 µM, the TGI (M19-MEL melanoma) was > 100 µM and the TGI (SK-OV-3 ovarian) was > 100 µM. For the same molecule, the TGI (SF-539 CNS) was > 100 µM, the TGI (A498 renal) was > 100 µM and the TGI (KM20L2 colon) was > 100 µM. For the same molecule, the TGI (786-0 renal) was > 100 µM, the TGI (TK-10 renal) was > 100 µM and the TGI (SNB-78 CNS) was > 100 µM. The TGI (U251 CNS) was > 100 µM, the TGI (UACC-257 melanoma) was > 100 µM and the TGI (HCT-15 colon) was > 100 µM. The TGI (HL-60(TB) leukemia) was > 100 µM, the TGI (SF-295 CNS) was > 100 µM and the TGI (RPMI-8226 leukemia) was > 100 µM. The TGI (DMS 273 small cell lung) was > 100 µM, the TGI (HCT-116 colon) was > 100 µM and the TGI (HCC-2998 colon) was > 100 µM. The TGI (NCI-H23 lung) was > 100 µM, the TGI (MALME-3M melanoma) was > 100 µM and the TGI (SNB-19 CNS) was > 100 µM. For the same molecule, the TGI (OVCAR-8 ovarian) was > 100 µM, the TGI (DLD-1 colon) was > 100 µM and the TGI (SNB-75 CNS) was > 100 µM. For the same molecule, the TGI (UACC-62 melanoma) was > 100 µM, the TGI (HOP-18 NSCLC) was > 100 µM and the TGI (OVCAR-3 ovarian) was > 100 µM. The TGI (HOP-62 NSCLC) was > 100 µM, the TGI (NCI-H460 lung) was > 100 µM and the TGI (SF-268 CNS) was > 100 µM. For the same molecule, the TGI (KM12 colon) was > 100 µM and the TGI (SW-620 colon) was > 100 µM.
